Experimental data: ChEMBL document CHEMBL1122820, “Purine and 8-substituted purine arabinofuranosyl and ribofuranosyl nucleoside derivatives as potential inducers of the differentiation of the Friend erythroleukemia” (1985)

Assays:
[1] = test system: Erythroleukemia cell line; assay: Percent benzidine-positive cell differentiation in friend erythroleukemia cells; assay type: functional, Mus musculus
[2] = test system: Erythroleukemia cell line; assay: Percent benzidine-positive cells in friend erythroleukemia cells was evaluated (deoxy-coformycin added at 25 uM); assay type: functional, Mus musculus
[3] = test system: Erythroleukemia cell line; assay: Optimum concentration for differentiation of friend erythroleukemia cells; assay type: functional, Mus musculus
[4] = test system: Erythroleukemia cell line; assay: Compound was evaluated for the inhibition of Cellular Replication (deoxy-coformycin added at 25 uM); assay type: functional; conditions: Mus musculus, read-out: ID50 (the source's name)
[5] = test system: Erythroleukemia cell line; assay: Optimum concentration for the extent of differentiation of friend erythroleukemia cells was evaluated.(deoxy-coformycin added at 25 uM); assay type: functional, Mus musculus
[6] = test system: Erythroleukemia cell line; assay: Inhibition of Cellular Replication of friend erythroleukemia cells; assay type: functional; conditions: Mus musculus, read-out: ID50 (the source's name)
[7] = test system: Erythroleukemia cell line; assay: Percent benzidine-positive cell differentiation of friend erythroleukemia cells was evaluated.(deoxy-coformycin added at 25 uM); assay type: functional, Mus musculus
[8] = test system: Erythroleukemia cell line; assay: Percent benzidine-positive cell differentiation of friend erythroleukemia cells was evaluated (deoxy-coformycin added at 25 uM); assay type: functional, Mus musculus

## Nc1ncnc2c1nc(Br)n2[C@@H]1O[C@H](CO)[C@@H](O)[C@H]1O
[1]
  Differentiation: 1%
[2]
  Differentiation: 1%
[3]
  Optimal concentration: 1 mM
[4]
  IC50: > 1000 µM
[5]
  Optimal concentration: 1 mM
[6]
  IC50: > 1000 µM

## OC[C@H]1O[C@@H](n2cnc3c(O)ncnc32)[C@@H](O)[C@@H]1O
[1]
  Differentiation: 82%
[3]
  Optimal concentration: 0.2 mM
[6]
  IC50: 600 µM

## [N-]=[N+]=Nc1nc2c(O)ncnc2n1[C@@H]1O[C@H](CO)[C@@H](O)[C@@H]1O
[1]
  Differentiation: 20%
[3]
  Optimal concentration: 0.5 mM
[6]
  IC50: 860 µM

## Nc1nc2c(O)ncnc2n1[C@@H]1O[C@H](CO)[C@@H](O)[C@H]1O
[1]
  Differentiation: 1%
[3]
  Optimal concentration: 0.025 mM
[6]
  IC50: 52 µM

## Nc1nc2c(O)ncnc2n1[C@@H]1O[C@H](CO)[C@@H](O)[C@@H]1O
[1]
  Differentiation: 6%
[3]
  Optimal concentration: 4 mM
[6]
  IC50: > 5000 µM

## [N-]=[N+]=Nc1nc2c(O)ncnc2n1[C@@H]1O[C@H](CO)[C@@H](O)[C@H]1O
[1]
  Differentiation: 30%
[3]
  Optimal concentration: 1 mM
[6]
  IC50: 720 µM

## CSc1ncnc2c1ncn2[C@@H]1O[C@H](CO)[C@@H](O)[C@@H]1O
[1]
  Differentiation: 49%
[3]
  Optimal concentration: 1.5 mM
[6]
  IC50: > 3000 µM

## OC[C@H]1O[C@@H](n2c(Br)nc3c(O)ncnc32)[C@@H](O)[C@@H]1O
[1]
  Differentiation: 1%
[3]
  Optimal concentration: 4 mM
[6]
  IC50: > 2500 µM

## CN(C)c1nc2c(O)ncnc2n1[C@@H]1O[C@H](CO)[C@@H](O)[C@@H]1O
[1]
  Differentiation: 2%
[3]
  Optimal concentration: 8 mM
[6]
  IC50: > 8000 µM

## Nc1ncnc2c1nc(Br)n2[C@@H]1O[C@H](CO)[C@@H](O)[C@@H]1O
[1]
  Differentiation: 1%
[7]
  Differentiation: 2%
[3]
  Optimal concentration: 1.6 mM
[4]
  IC50: 850 µM
[5]
  Optimal concentration: 0.8 mM
[6]
  IC50: 1600 µM

## OC[C@H]1O[C@@H](n2cnc3c(S)ncnc32)[C@@H](O)[C@@H]1O
[1]
  Differentiation: 56%
[3]
  Optimal concentration: 0.02 mM
[6]
  IC50: 110 µM

## OC[C@H]1O[C@@H](n2c(Br)nc3c(O)ncnc32)[C@H](O)[C@@H]1O
[1]
  Differentiation: 1%
[3]
  Optimal concentration: 5 mM
[6]
  IC50: > 5000 µM

## CN(C)c1nc2c(O)ncnc2n1[C@@H]1O[C@H](CO)[C@@H](O)[C@H]1O
[1]
  Differentiation: 3%
[3]
  Optimal concentration: 8 mM
[6]
  IC50: > 8000 µM

## OC[C@H]1O[C@@H](n2cnc3c(NO)ncnc32)[C@@H](O)[C@@H]1O
[1]
  Differentiation: 74%
[2]
  Differentiation: 20%
[3]
  Optimal concentration: 0.2 mM
[4]
  IC50: 69 µM
[5]
  Optimal concentration: 0.04 mM
[6]
  IC50: 540 µM

## [N-]=[N+]=N[C@H]1[C@H](O)[C@@H](CO)O[C@H]1n1cnc2c(O)ncnc21
[1]
  Differentiation: 40%
[3]
  Optimal concentration: 2 mM
[6]
  IC50: 6000 µM

## CSc1ncnc2c1ncn2[C@@H]1O[C@H](CO)[C@@H](O)[C@H]1O
[1]
  Differentiation: 51%
[3]
  Optimal concentration: 0.005 mM
[6]
  IC50: 7 µM

## OC[C@H]1OC(n2c(S)nc3c(O)ncnc32)[C@H](O)[C@@H]1O (stereo partly specified)
[1]
  Differentiation: 1%
[3]
  Optimal concentration: 4 mM
[6]
  IC50: > 4000 µM

## O=c1[nH]c(=O)c2nc(O)n(C3O[C@H](CO)[C@@H](O)[C@H]3O)c2[nH]1 (stereo partly specified)
[1]
  Differentiation: 3%
[3]
  Optimal concentration: 7 mM
[6]
  IC50: > 7000 µM

## O=c1[nH]c(=O)c2nc(Br)n(C3O[C@H](CO)[C@@H](O)[C@H]3O)c2[nH]1 (stereo partly specified)
[1]
  Differentiation: 1%
[3]
  Optimal concentration: 7 mM
[6]
  IC50: > 7000 µM

## O=c1[nH]c(=O)c2nc(OCc3ccccc3)n(C3O[C@H](CO)[C@@H](O)[C@H]3O)c2[nH]1 (stereo partly specified)
[1]
  Differentiation: 6%
[3]
  Optimal concentration: 7 mM
[6]
  IC50: > 7000 µM

## Nc1ncnc2c1ncn2[C@@H]1O[C@H](CO)[C@@H](O)[C@H]1O [ADENOSINE]
[1]
  Differentiation: 3%
[8]
  Differentiation: 2%
[3]
  Optimal concentration: 4 mM
[4]
  IC50: 50 µM
[5]
  Optimal concentration: 0.04 mM
[6]
  IC50: > 4000 µM

## C[S+](C)[O-] [DIMETHYL SULFOXIDE]
[1]
  Differentiation: 70%
[3]
  Optimal concentration: 200 mM

## O=c1[nH]cnc2c1ncn2[C@@H]1O[C@H](CO)[C@@H](O)[C@H]1O [INOSINE]
[1]
  Differentiation: 12%
[3]
  Optimal concentration: 7 mM
[6]
  IC50: > 7000 µM

## OC[C@H]1O[C@@H](n2cnc3c(S)ncnc32)[C@H](O)[C@@H]1O [THIOINOSINE]
[1]
  Differentiation: 51%
[3]
  Optimal concentration: 1 mM
[6]
  IC50: > 2000 µM

## Nc1ncnc2c1ncn2[C@@H]1O[C@H](CO)[C@@H](O)[C@@H]1O [VIDARABINE]
[1]
  Differentiation: 4%
[8]
  Differentiation: 22%
[3]
  Optimal concentration: 0.08 mM
[4]
  IC50: 3 µM
[5]
  Optimal concentration: 0.002 mM
[6]
  IC50: 94 µM

## OC[C@H]1O[C@@H](n2cnc3c(O)nc(O)nc32)[C@H](O)[C@@H]1O [XANTHOSINE]
[3]
  Optimal concentration: 7 mM
[6]
  IC50: > 7000 µM
